Test results as given in paper PMC8594567 (Journal of the American Chemical Society, 2021).
Where two headings read alike, the source gives them in different places. Blank lines part the entries; values can stand above or below the compound they belong to.

Columns and labels:
purified human CYP3A5 [1] = molecular target: T1, purified human CYP3A5 (Homo sapiens, UniProt P20815); assay: Biochemical P450-Glo CYP3A inhibition assay, CYP3A5
CYP3A4 = CYP3A4 (Homo sapiens, UniProt P08684); assay: UV-Vis spectroscopy binding assay, CYP3A4; settings: for increase in Ks on removal of the region B group: CYP3A4, region B-deleted analog vs parent
purified human CYP3A4 [2] = molecular target: T2, purified human CYP3A4 (Homo sapiens, UniProt P08684); assay: Biochemical P450-Glo CYP3A inhibition assay, CYP3A4
CYP3A5 [3] = molecular target: T3, CYP3A5 (Homo sapiens, UniProt P20815); assay: UV-Vis spectroscopy binding assay, CYP3A5
purified human CYP3A5 [4] = molecular target: T1, purified human CYP3A5; settings: 10 min
purified human CYP3A4 [5] = molecular target: T2, purified human CYP3A4; settings: 10 min
CYP3A4^WT = CYP3A4^WT (Homo sapiens, UniProt P08684); assay: Cell-based P450-Glo CYP3A mutant inhibition assay, CYP3A4 WT; settings: 293T/17 cells; also prior data ref 30
CYP3A4^F108L = CYP3A4^F108L (Homo sapiens, UniProt P08684, F108L); assay: Cell-based P450-Glo CYP3A mutant inhibition assay, CYP3A4 F108L; settings: relative to CYP3A4^WT; 293T/17 cells
CYP3A4^D214G = CYP3A4^D214G (Homo sapiens, UniProt P08684, D214G); assay: Cell-based P450-Glo CYP3A mutant inhibition assay, CYP3A4 D214G; settings: 293T/17 cells
CYP3A5^G480A = CYP3A5^G480A (Homo sapiens, UniProt P20815, G480A); assay: Cell-based P450-Glo CYP3A mutant inhibition assay, CYP3A5 G480A; settings: 293T/17 cells
CYP3A5 G480S = CYP3A5 G480S (Homo sapiens, UniProt P20815, G480S); assay: Cell-based P450-Glo CYP3A mutant inhibition assay, CYP3A5 G480S; settings: G480S substitution; 293T/17 cells
CYP3A5 [6] = molecular target: T3, CYP3A5; assay: Time-dependent inhibition assay; format: biochemical; settings: pre-incubation 0 or 30 mins at room temperature
CYP3A5^G214A/G480A = CYP3A5^G214A/G480A (Homo sapiens, UniProt P20815, G214A/G480A); assay: Cell-based P450-Glo CYP3A mutant inhibition assay, CYP3A5 G214A/G480A; settings: 0.08–20 μM CBZ; 293T/17 cells
CYP3A5 G480L = CYP3A5 G480L (Homo sapiens, UniProt P20815, G480L); assay: Cell-based P450-Glo CYP3A mutant inhibition assay, CYP3A5 G480L; settings: G480L substitution; 293T/17 cells
CYP3A5 [7] = molecular target: T3, CYP3A5; assay: in vitro

SMILES: CCCC(=O)O[C@]1(C(=O)CCl)[C@@H](C)C[C@H]2[C@@H]3CCC4=CC(=O)C=C[C@]4(C)[C@@]3(F)C(=O)C[C@@]21C [clobetasone butyrate, Clobetasone butyrate]
weaker CYP3A5 inhibition than CBZ (IC50 ratio) (purified human CYP3A5 [1]; IC50 of analog relative to CBZ): approximately 5 fold
Ks for CYP3A4 compared with CBZ (CYP3A4): maintained similar Ks value
CYP3A4 inhibition (purified human CYP3A4 [2]; P450-Glo biochemical assay): slightly enhanced CYP3A4 inhibition

increase in Ks on removal of the region B group (CYP3A5 [3]; human, pH 7.4): > 100 fold
increase in Ks on removal of the region B group (CYP3A4): 3 fold
weakening of CYP3A4 inhibition on deleting the region B group (purified human CYP3A4 [5]): approximately 10 fold
SMILES: CCCC(=O)O[C@]1(C(=O)COC(C)=O)CC[C@H]2[C@@H]3C[C@H](F)C4=CC(=O)C=C[C@]4(C)[C@@]3(F)[C@@H](O)C[C@@]21C [difluprednate]
CYP3A5 inhibition (purified human CYP3A5 [4]): strongest and most selective CYP3A5 inhibitor among all compounds we tested

SMILES: CC(=O)OCC(=O)[C@@]1(OC(C)=O)[C@@H](C)C[C@H]2[C@@H]3C[C@H](F)C4=CC(=O)C=C[C@]4(C)[C@@]3(F)[C@@H](O)C[C@@]21C [diflorasone]
CYP3A5 inhibition (purified human CYP3A5 [4]): no or weaker CYP3A5 inhibition than that of CBZ
CYP3A4 inhibition (purified human CYP3A4 [5]): still capable of inhibiting CYP3A4 at high concentrations

CYP3A5 inhibition (purified human CYP3A5 [4]): consistently weaker CYP3A5 inhibition
SMILES: CCOC(=O)O[C@]1(C(=O)COC(=O)CC)CC[C@H]2[C@@H]3CCC4=CC(=O)C=C[C@]4(C)[C@H]3[C@@H](O)C[C@@]21C [prednicarbate, Prednicarbate]

increase in Ks on removal of the region B group (CYP3A4): approximately 20 fold
CYP3A5 inhibition (purified human CYP3A5 [4]): potent and selective inhibitor of CYP3A5
inhibition compared with CYP3A4^WT (CYP3A4^D214G): identically
inhibition compared with CYP3A5^WT (CYP3A5^G480A): to the same extent as was CYP3A5^WT
reduction in potency vs WT (CYP3A5 G480S): at least 20 fold
time-dependent inhibition of CYP3A5 (CYP3A5 [6]): not time-dependent inhibitors of CYP3A5
effect on enzyme activity (CYP3A5^G214A/G480A): weakly activated
reduction in potency vs WT (CYP3A5 G480L): at least 20 fold
SMILES: CCC(=O)O[C@]1(C(=O)CCl)[C@@H](C)C[C@H]2[C@@H]3CCC4=CC(=O)C=C[C@]4(C)[C@@]3(F)[C@@H](O)C[C@@]21C [CBZ, Clobetasol propionate]
CYP3A4 inhibition (CYP3A4^WT): can be inhibited at high CBZ concentrations
effect of the F108L substitution on inhibitory potency (CYP3A4^F108L): substantially weakened the inhibitory potency

SMILES: C[C@H]1C[C@H]2[C@@H]3CCC4=CC(=O)C=C[C@]4(C)[C@@]3(F)[C@@H](O)C[C@]2(C)[C@@]1(O)C(=O)CCl [clobetasol, Clobetasol]
CYP3A5 inhibition (purified human CYP3A5 [1]; P450-Glo biochemical assay): failed to inhibit CYP3A5 even at the highest concentration tested
Ks relative to the counterpart with region B group (CYP3A5 [3]; dexamethasone acetate vs difluprednate, clobetasol vs CBZ, Ks higher): > 100 fold
IC50 (purified human CYP3A4 [2]; purified full-length CYP3A4, luciferin-IPA): 13 ± 4 µM

CYP3A5 inhibition (purified human CYP3A5 [4]): consistently weaker CYP3A5 inhibition
SMILES: CCC(=O)OCC(=O)[C@@]1(OC(=O)CC)[C@@H](C)C[C@H]2[C@@H]3CCC4=CC(=O)C=C[C@]4(C)[C@@]3(F)[C@@H](O)C[C@@]21C [betamethasone dipropionate]

SMILES: C[C@@H]1C[C@H]2[C@@H]3CCC4=CC(=O)C=C[C@]4(C)[C@@]3(F)[C@@H](O)C[C@]2(C)[C@H]1C(=O)CO [desoximetasone]
CYP3A5 inhibition (purified human CYP3A5 [4]): no or weaker CYP3A5 inhibition than that of CBZ

Ks relative to the counterpart with region B group (CYP3A5 [3]; human, pH 7.4): > 100 fold
inhibition at 10 min, 300 µM (CYP3A5 [7]): 35%
SMILES: CC(=O)OCC(=O)[C@@]1(O)[C@H](C)C[C@H]2[C@@H]3CCC4=CC(=O)C=C[C@]4(C)[C@@]3(F)[C@@H](O)C[C@@]21C [dexamethasone acetate]
